Reference: PMC6851324, “Design and development of stapled transmembrane peptides that disrupt the activity of G-protein–coupled receptor oligomers” (The Journal of Biological Chemistry, 2019)
Where a SMILES comes first, the peptide text is derived from it.

B1: CB1R N-terminally tagged with LgBiT or SmBiT, CMV promoter (receptor, human, UniProt P21554 1-472, looked up)
chain: MKSILDGLADTTFRTITTDLLYVGSNDIQYEDIKGDMASKLGYFPQKFPLTSFRGSPFQEKMTAGDNPQLVPADQVNITEFYNKSLSSFKENEENIQCGENFMDIECFMVLNPSQQLAIAVLSLTLGTFTVLENLLVLCVILHSRSLRCRPSYHFIGSLAVADLLGSVIFVYSFIDFHVFHRKDSRNVFLFKLGGVTASFTASVGSLFLTAIDRYISIHRPLAYKRIVTRPKAVVAFCLMWTIAIVIAVLPLLGWNCEKLQSVCSDIFPHIDETYLMFWIGVTSVLLLFIVYAYMYILWKAHSHAVRMIQRGTQKSIIIHTSEDGKVQVTRPDQARMDIRLAKTLVLILVVLIICWGPLLAIMVYDVFGKMNKLIKTVFAFCSMLCLLNSTVNPIIYALRSKDLRHAFRSMFPSCEGTAQPLDNSMGDSDCLHKHANNAASVHRAAESCIKSTVKIAKVTMSVSTDTSAEAL
notes: cannabinoid receptor type 1 (CB1R), human, cloned from the cDNA Resource Center plasmid; also called LgBiT–CB1R; LgBT–CB1R; source: HEK293, transiently transfected (CMV promoter), live cells; not shown: LgBiT or SmBiT (one of the two on each copy; LgBiT in the peptide screen), N-terminal, kept

Assays:
[1] = biological target: T1, trypsin from porcine pancreas (Sus scrofa, UniProt P00761); experiment: Proteolytic stability against trypsin; assay type: in vitro ADME; conditions: pig, isolated enzyme trypsin; 55.5 μM peptide, 0.55 μg/ml trypsin from porcine pancreas, ammonium bicarbonate buffer pH 7.5, 37 °C, 15–480 min, intact peptide by RP-HPLC (Fmoc-Gly internal standard), n = 3, nonlinear regression fit; read-out: Half-life (min), trypsin
T1 construct: purchased Sigma; host or cells: porcine pancreas
T1 sequence (P00761 9-231): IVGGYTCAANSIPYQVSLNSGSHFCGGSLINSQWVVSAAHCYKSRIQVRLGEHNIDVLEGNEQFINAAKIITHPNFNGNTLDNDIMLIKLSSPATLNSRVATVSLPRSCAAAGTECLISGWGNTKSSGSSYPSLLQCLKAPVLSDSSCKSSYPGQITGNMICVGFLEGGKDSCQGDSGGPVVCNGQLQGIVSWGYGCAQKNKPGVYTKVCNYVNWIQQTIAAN
Description: (§1) Figure 4. Biophysical analysis of stapled peptides. A, amino acid sequence alignment of the targeted TM regions and disrupting peptides. Cys residues are in the reduced state. Blue bridges indicate the stapled amino acid residues. […] Yields, purity, and MALDI-TOF data are shown for the stapled peptides and negative control. B, CD analysis of 30–50 μM peptides at 20 °C. For proteolytic stability studies, the peptide solution (55.5 μM for trypsin and chymotrypsin and 11.1 μM for serum) was incubated in the presence of 0.55 μg/ml trypsin from porcine pancreas (E), α-chymotrypsin (F), or mouse serum (G) at 37 °C for the indicated times (indicated on the x axis). Data are mean ± S.E. (error bars) (n = 3) percentage of intact peptide normalized to t = 0. Proteolytic half-lives and putative cleavage sites (predicted using the Expasy bioinformatics server's model with a 50% probability of cleavage) are indicated at the bottom of each panel. Positive correlation between helicity and half-life in trypsin/chymotrypsin (C) or serum (D) was determined by two-tailed Pearson's correlation test. TEXT PRINTED IN THE PICTURE: (B) TM7-TAT: Ellipticity (%): 3.4 | (B) TM6-TAT: Ellipticity (%): 18.3 | (B) TM5-TAT: Ellipticity (%): 20.9 | (B) 8: Ellipticity (%): 58.3 | (B) 9: Ellipticity (%): 46.4 | (B) 10: Ellipticity (%): 36.8 | (B) 11: Ellipticity (%): 46 | (E) TM7-TAT: Half-life (min): 21; #Cleavage sites: 8 | (E) TM6-TAT: Half-life (min): 40; #Cleavage sites: 7 | (E) TM5-TAT: Half-life (min): 33; #Cleavage sites: 8 | (E) 8: Half-life (min): 307; #Cleavage sites: 0 | (E) 9: Half-life (min): 178; #Cleavage sites: 0 | (E) 10: Half-life (min): 75; #Cleavage sites: 6 | (E) 11: Half-life (min): 84; #Cleavage sites: 0 | (F) TM7-TAT: Half-life (min): 22; #Cleavage sites: 6 | (F) TM6-TAT: Half-life (min): 32; #Cleavage sites: 7 | (F) TM5-TAT: Half-life (min): 28; #Cleavage sites: 7 | (F) 8: Half-life (min): 425; #Cleavage sites: 4 | (F) 9: Half-life (min): 198; #Cleavage sites: 3 | (F) 10: Half-life (min): 63; #Cleavage sites: 2 | (F) 11: Half-life (min): 79; #Cleavage sites: 4 | (G) TM7-TAT: Half-life (hours): 0.46 | (G) TM6-TAT: Half-life (hours): 0.55 | (G) TM5-TAT: Half-life (hours): 0.81 | (G) 8: Half-life (hours): ≥18 | (G) 9: Half-life (hours): 14.7 | (G) 10: Half-life (hours): 11.7 | (G) 11: Half-life (hours): 5.3 DOUBTS OF THE COPYIST ABOUT THIS PICTURE: Panel A table (Yield, Rt, Purity, [M+H+] calc., [M+H+] Peak Found for 7-11) left out as synthesis and mass-spectrum characterisation data; uncertain whether [M+H+] calc. should count as a molecular weight
(§2) Dose–response curves were fitted using a four-parameter logistic nonlinear regression mode. Peptide stability data were fitted using a nonlinear regression mode for dissociation kinetics. All statistical tests, curve fitting, and graphing were performed using GraphPad Prism 8 (GraphPad Software, La Jolla, CA).
To 100 μl of peptide solution (100 μM, dissolved in ammonium bicarbonate buffer, pH 7.5), 60 μl of ammonium bicarbonate buffer (pH 7.5) was added, together with 20 μl of temperature-equilibrated (37 ± 1 °C) trypsin (5 μg/ml) from porcine pancreas (Sigma, 13,000–20,000 BAEE units/mg of protein). Peptides were incubated for 15, 30, 60, 120, 240, and 480 min, and then MeOH (HPLC Grade) + 0.05% TFA was added. The samples were then centrifuged (15,000 rpm), and the supernatant was analyzed, using Fmoc-Gly (10 μl, 0.2 mM) as an internal standard. The digestion at each time point was repeated three times to give the average values along with S.D. The amount of intact peptide that remained in the mixture was quantified by RP-HPLC. The experiment was repeated twice on different days.

5-HT2AR–CB1R heteromers = tested on: 5-HT2AR–CB1R heteromers; design: method as in 2 sources, ref 16 = [16]; PMID 26158621; doi:10.1371/journal.pbio.1002194; 16. Viñals X. , Moreno E. , Lanfumey L. , Cordomí A. , Pastor A. , de La Torre R. , Gasperini P. , Navarro G. , Howell L. A. , Pardo L. , Lluís C. , Canela E. I. , McCormick P. J. , Maldonado R. , and ||| ref 4, unpublished observations; conditions: synthetic TM-mimicking peptides fused to HIV-TAT; cited from earlier work
Stability in mouse serum = assay type: in vitro ADME; conditions: 11.1 μM peptide, fresh nonsterile mouse serum (200 μl serum + 25 μl peptide solution, pH 7.5 buffer with 10% DMSO), 37 °C, quench 15% TCA in acetonitrile, HPLC, n = 3; read-out: Half-life (hours), mouse serum (converted)
Description: as §1, §2
To 200 μl of fresh nonsterile mouse serum was added 25 μl of peptide solution (100 μM, dissolved in ammonium bicarbonate buffer, pH 7.5, containing 10% DMSO), and the mixture was incubated at 37 °C. At the specified time, an aliquot of incubation mixture was withdrawn and quenched by the addition of an equal volume of 15% TCA in acetonitrile to precipitate out serum proteins over ice for 30 min. The mixture was then centrifuged at 13,500 rpm for 10 min, and the supernatant was collected and analyzed by HPLC in a similar manner as described previously. The experiment was repeated twice on different days.

[2] = biological target: T2, α-chymotrypsin from bovine pancreas (Bos taurus, UniProt P00766, DEL14-15/DEL147-148); experiment: Proteolytic stability against chymotrypsin; assay type: in vitro ADME; conditions: cattle, isolated enzyme chymotrypsin; 55.5 μM peptide, 0.55 μg/ml α-chymotrypsin from bovine pancreas, ammonium bicarbonate buffer pH 7.5, 37 °C, 15–480 min, intact peptide by RP-HPLC, n = 3, nonlinear regression fit; read-out: Half-life (min), α-chymotrypsin
T2 construct: purchased Sigma Type II; host or cells: bovine pancreas
Description: as §1, §2
To 100 μl of peptide solution (100 μM, dissolved in ammonium bicarbonate buffer, pH 7.5), 60 μl of ammonium bicarbonate buffer (pH 7.5) was added, together with 20 μl of temperature-equilibrated (37 ± 1 °C) α-chymotrypsin (5 μg/ml) from bovine pancreas (Sigma, Type II, activity > 40 units/mg protein). Peptides were incubated for 15, 30, 60, 120, 240, and 480 min, and then MeOH (HPLC grade) + 0.05% TFA was added. The samples were then centrifuged (15,000 rpm), and supernatant was analyzed in a similar manner as described above. The experiment was repeated twice on different days.

[3] = biological target: T3, 5-HT2AR N-terminally tagged with LgBiT or SmBiT, CMV promoter (human, UniProt P28223 1-471); experiment: split reporter (BiFC, NanoBiT); NanoBiT orientation screens: LgBiT and SmBiT receptor fusions (C- or N-terminal, CMV promoter) transiently co-transfected in HEK293 cells at 50 or 100 ng of receptor/well, compared with each construct alone; live cells, 24 h post-transfection, furimazine substrate; conditions: partners not purified
T3 construct: 5-hydroxytryptamine 2A receptor (5-HT2AR), human, cloned from the cDNA Resource Center plasmid; also called SmBiT–5-HT2AR; SmBiT 5-HT2AR; source: HEK293, transiently transfected (CMV promoter), live cells; not shown: LgBiT or SmBiT (one of the two on each copy; SmBiT in the peptide screen), N-terminal, kept
T3 sequence (P28223 whole entry, the tested form may be a part): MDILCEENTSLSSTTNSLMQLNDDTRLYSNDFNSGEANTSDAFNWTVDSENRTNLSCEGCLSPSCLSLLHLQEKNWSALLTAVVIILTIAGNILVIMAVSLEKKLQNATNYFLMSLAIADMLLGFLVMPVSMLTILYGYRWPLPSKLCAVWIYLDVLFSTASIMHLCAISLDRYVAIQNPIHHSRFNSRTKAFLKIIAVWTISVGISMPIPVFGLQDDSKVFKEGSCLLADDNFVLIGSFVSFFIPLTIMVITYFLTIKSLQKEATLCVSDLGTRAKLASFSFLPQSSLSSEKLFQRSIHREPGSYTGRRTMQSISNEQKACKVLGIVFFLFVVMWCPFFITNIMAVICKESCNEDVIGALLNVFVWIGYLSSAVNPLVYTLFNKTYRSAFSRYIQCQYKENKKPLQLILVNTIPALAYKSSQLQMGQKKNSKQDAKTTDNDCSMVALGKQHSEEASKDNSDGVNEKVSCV

Molecule | half-life at 55.5 μM [1] [min] | disruption of 5-HT2AR–CB1R heteromers (previous studies) (5-HT2AR–CB1R heteromers) | half-life at 11.1 μM (Stability in mouse serum) [h] | half-life at 55.5 μM [2] [min] | fold change of luminescence over the individual receptor construct [3] [fold]
CC[C@H](C)[C@H](NC(=O)[C@@H](NC(=O)[C@@H]1CCCN1C(=O)[C@H](CC(N)=O)NC(=O)[C@@H](NC(=O)[C@@H](NC(=O)[C@H](CO)NC(=O)[C@H](CC(N)=O)NC(=O)[C@H](CC(C)C)NC(=O)[C@H](CC(C)C)NC(=O)[C@H](CS)NC(=O)[C@H](CC(C)C)NC(=O)[C@H](CCSC)NC(=O)[C@H](CO)NC(=O)[C@H](CS)NC(=O)[C@H](Cc1ccccc1)NC(=O)[C@H](C)NC(=O)[C@H](Cc1ccccc1)NC(=O)[C@@H](NC(=O)[C@@H](NC(=O)[C@H](CCCCN)NC(=O)[C@@H](NC(=O)[C@@H](N)CC(C)C)[C@@H](C)CC)[C@@H](C)O)C(C)C)[C@@H](C)O)C(C)C)[C@@H](C)CC)C(=O)N[C@@H](Cc1ccc(O)cc1)C(=O)N[C@@H](C)C(=O)N[C@@H](CC(C)C)C(=O)N[C@@H](CCCNC(=N)N)C(=O)NCC(=O)N[C@@H](CCCNC(=N)N)C(=O)N[C@@H](CCCCN)C(=O)N[C@@H](CCCCN)C(=O)N[C@@H](CCCNC(=N)N)C(=O)N[C@@H](CCCNC(=N)N)C(=O)N[C@@H](CCC(N)=O)C(=O)N[C@@H](CCCNC(=N)N)C(=O)N[C@@H](CCCNC(=N)N)C(=O)N[C@@H](CCCNC(=N)N)C(=O)O [TM7-TAT, reference compound] (H-LIKTVFAFCSMLCLLNSTVNPIIYALRGRKKRRQRRR-OH) | 21 | did not disrupt the heteromer | 0.46 | 22 | –
B1 | – | – | – | – | ~200
